Tests used:
SUDHL-2 cells = assay: Cell viability by trypan blue assay, SUDHL-2; type: cell-based
Procedure: Cell viability was performed using trypan blue-based assay (n=3 technical triplicate), data represented as mean±(SEM), * represents the statistical analysis were performed relative to Scr-γtcPNA-155 and ♦ represent analysis performed relative to PNA-155. *p<0.05, **p<0.01, ***p<0.001 and ****p<0.0001, ♦p<0.05, ♦♦p<0.01, unpaired two-tailed t-test was used for statistical analysis. The experiment was repeated three times and in triplicate.
Cell viability was performed using trypan blue-based assay (n=3), data represented as mean±standard error mean (SEM), *p<0.05, **p<0.01. Unpaired two-tailed t-test was used for statistical analysis.
Cell viability was performed using trypan blue-based assay (n=3), data represented as mean±standard error mean (SEM).
Cell viability by trypan blue assay: Diffused large B cell lymphoma (DLBCL) cell lines like SUDHL-2 (ATCC® CRL-2956™) and SUDHL-5 (ATCC® CRL-2958™) cells were purchased from ATCC (Virginia, USA). The cells were regularly tested for Mycoplasma contamination using MycoAlert™ Mycoplasma detection kit (Lonza). All the cells used in the experiment were passaged less than 8 times. 10,000 U2932, SUDHL-5, or SUDHL-2 cells were plated in a 96 well plate. The cells were treated with different doses (500 nM, 1000 nM, 2000 nM and 4000 nM) of PNA-155, gamma tcPNA-155 or Scr-γtcPNA-155 for 48 hrs in an incubator (37° C. and 5% CO2). The dead cells were marked with trypan blue. Further counting was performed using an automated cell counter (Bio-rad).

U2932 tumors = assay: Immunostaining of Caspase-3 and Ki67 in treated U2932 tumors; type: in vivo, NSG mice; details: U2932 xenograft
Procedure: FIGS. 17A-D show in vivo studies in U2932 derived xenograft model. (17A) Biodistribution of γtcPNA-155 TAMRA in tumor sections (17B) Tumor volume fold change (n=6, data represented as mean±standard error mean (SEM), *p<0.05, **p<0.01, multiple t-tests one per row was used for statistical analysis). Asterisk denotes the analysis was performed relative to Scr-γtcPNA-155. Diamond symbol denotes the analysis was performed relative to PNA-155. (17C) Representative images showing the effects of Scr-γtcPNA-155, PNA-155, γPNA-155 and γtcPNA-155 on Caspase-3 immunostaining of tumor (magnification; ×20). Autofluorescence (AF) at 514 nm was used to show the tumor. Scale bar=[…]. (17D) Caspase-3 immunostaining quantification, *p<0.05. n=15. The n indicates the number of images.
FIGS. 21A-B show Ki-67 immunostaining (21A) and quantification (21B) in the in vivo treated tumors (n=15), **p<0.01. The n indicates the number of images. Scale bar=50 μm.
Histopathology and immunohistochemistry; The mice were sacrificed by CO2 inhalation when tumor volume reached 2000 mm^3. The tumor and vital organs (e.g., liver, kidney, spleen, lungs, heart) were carefully isolated, weighed, and fixed in the 10% NBF solution. The sections ([…]) of formalin-fixed paraffin-embedded liver and kidney were stained by hematoxylin and eosin for the histological analysis. […]

γtcPNA-155: serine gamma tail-clamp anti-miR-155 PNA, RR-TJJJJ-OOO-ACCCCTATCACGATTAGCATTAA-RR, SEQ ID NO: 3 (all peptide nucleic acid (PNA); serine gamma PNA, tail-clamp TJJJJ via linkers, Arg-Arg at both ends)
reduction in cell viability at 500 nM (SUDHL-2 cells; SUDHL-2, 500 nM, compared to PNA-155 treated group): significant reduction in cell viability | decrease in cell viability (SUDHL-2 cells; SUDHL-2, 4UM, 48 hours): ~80% | Caspase-3 positive cells in tumor sections (U2932 tumors): increase | Ki67 positive cells in tumor sections (U2932 tumors): significant decrease

Source: patent US20260092085A1, “SYNTHETIC TRIPLEX PEPTIDE NUCLEIC ACID-BASED INHIBITORS FOR CANCER THERAPY” (University of Connecticut, priority 2022, published 2026)
